Laboratory results published in patent US5936097A, “4,9-ethano-benzo(F)isoindole derivatives as farnesyl transferase inhibitors” (Rhone-Poulenc Rorer, S.A., priority 1995, dated 1999).
Where a name gives a salt, the structure may show the parent alone.

What follows are molecules tested against T1, human farnesyl transferase (Homo sapiens, UniProt P49354+P49356) (assay: inhibition of farnesyl transferase ((3H) farnesyl transfer from (3H) FPP to p21 H-ras)). Conditions: not given.
T1 construct: human farnesyl transferase purified from THP1 cell cultures; endogenous in cells; host or cells: THP1 cell cultures (enzyme purified from the cells)
Format: biochemical
Method: Farnesyl transferase activity is determined by the amount of (^3 H) farnesyl transferred from (^3 H) farnesylpyrophosphate [(^3 H) FPP] to the p21 H-ras protein. The standard reaction mixture is composed, for a final volume of […], of 50 mM Tris-HCl, 5 mM MgCl2, 5 mM dithiotreitol, 0.2% octyl b-D-glucopyranoside, 200 picomol p21 H-ras, 4.5 picomol (^3 H) FPP (activity 61000 dpm/picomol).
Reaction is initiated by adding approximately 5 ng of human farnesyl transferase purified from THP1 cell cultures. After incubation for 20 minutes at 37° C. in a microtitration plate containing 96 1-cm^3 wells per plate (Titer Plate®, Beckman), the reaction is stopped by adding 0.4 cm^3 of 0.1% SDS in methanol at 0° C. The mixture is then treated with 0.4 cm^3 of 30% trichloroacetic® acid (TCA) in methanol. The plates are left in ice for 1 hour. The precipitated contents are then retained on Filtermat®, Pharmacia), glass® fibre membranes with the filtration unit (Combi Cell Harvester®, Skatron), and rinsed with 6% trichloroacetic acid in distilled water. The membranes are dried in a microwave oven, then impregnated with scintillation medium by melting of Meltilex® (Pharmacia) under hot air, and lastly counted in cpm in a b-Plate counter® (LKB). Each test is repeated 3 times.
The unit of activity is defined as 1 picomole of (^3 H) FPP transferred to p21 H-ras in 20 minutes.
The percentage inhibition values are obtained by comparison of the tests with and without inhibitor after deduction of blanks, the IC50 values being measured on the basis of the inhibitions obtained with 9 different concentrations using Enzfitter® or Grafit® software.

| Structure (SMILES) | IC50 [µM] |
| --- | --- |
| COc1ccccc1C(=O)C(=O)N1C[C@@H]2[C@]3(c4ccccc4)CC[C@@H](c4ccccc43)[C@]2(C(=O)O)C1 (racemic) [Example 42, (3aRS,4SR,9SR,9aRS)-4,9-ethano-2-[2-(2-methoxyphenyl)-2-oxoacetyl]-9-phenyl-2,3,3a,4,9,9a-hexahydro-1H-benzo[f]isoindole-3a-carboxylic acid] | 8.45 |
| COc1ccccc1OC(=O)N1C[C@H]2[C@@]3(c4ccccc4)CC[C@H](c4ccccc43)[C@@]2(C(=O)O)C1 (relative stereo) [Example 27, (3aRS, 4SR, 9SR, 9aRS)-4,9-ethano-2-(2-methoxyphenyl)oxycarbonyl-9-phenyl-1,2,3,3a,9,9a-hexahydro-1H-benzo[f]isoindole-3a-carboxylic acid] | 5.8 |
| CSc1ccccc1CC(=O)N1CC2C3(c4ccccc4)CCC(c4ccccc43)C2(C(=O)O)C1 (single isomer, unassigned) [Example 31] | 0.62 |
| O=C(Cc1ccccc1F)N1C[C@@H]2[C@]3(c4ccccc4)CC[C@@H](c4ccccc43)[C@]2(C(=O)O)C1 (relative stereo) [Example 63, (3aRS,4SR,9SR,9aRS)-4,9-Ethano-2-(2-fluorophenyl)acetyl-9-phenyl-2,3,3a,4,9,9a-hexahydro-1H-benzo[f]isoindole-3a-carboxylic acid] | 7 |

Same assay, conditions: human farnesyl transferase purified from THP1 cell cultures; p21 H-ras substrate; 20 minutes at 37° C.; 9 concentrations; read-out: in vitro inhibitory activity IC50

| Structure (SMILES) | IC50 [µM] |
| --- | --- |
| COc1ccccc1CC(=O)N1C[C@H]2[C@@]3(c4ccccc4)CC[C@H](c4ccccc43)[C@@]2(CP(=O)(O)O)C1 (relative stereo) [Example 23] | 2.6 |
| CNC(=O)[C@@]12CN(C(=O)Cc3ccccc3OC)C[C@@H]1[C@]1(c3ccccc3)CC[C@H]2c2ccccc21 (relative stereo) [Example 54, (3aRS,4SR,9SR,9aRS)-N-methyl-4,9-ethano-2-(2-methoxyphenyl)acetyl-9-phenyl-2,3,3a,4,9,9a-hexahydro-1H-benzo[f]isoindole-3a-carboxamide] | 4.7 |
| COc1ccccc1CC(=O)N1C[C@H]2[C@@]3(c4ccccc4)CC[C@H](c4ccccc43)[C@@]2(CC(=O)NC(CCSC)C(=O)O)C1 (stereo partly drawn) [Example 21, N-[(3aRS, 4SR, 9SR, 9aRS)-4,9-ethano-2-(2-methoxyphenyl)acetyl-9-phenyl-2,3,3a,4,9,9a-hexahydro-1H-benzo[f]isoindole-3a-yl]acetylmethionine] | 3.75 |
| COc1ccccc1CC(=O)N1C[C@H]2[C@@]3(c4ccccc4)CC[C@H](c4ccccc43)[C@@]2(CC(=O)O)C1 (relative stereo) [Example 19, (3aRS, 4SR, 9SR, 9aRS)-4,9-ethano-2-(2-methoxyphenyl)acetyl-9-phenyl-2,3,3a,4,9,9a-hexahydro-1H-benzo[f]isoindol-3a-acetic acid] | 5.6 |
| COc1ccccc1CC(=O)N1C[C@H]2[C@@]3(c4ccccc4)CC[C@H](c4ccccc43)[C@@]2(C(=O)N(C)OC)C1 (relative stereo) [Example 68, (3aRS,4SR,9SR,9aRS)-N-methoxy-N-methyl-4,9-ethano-2-(2-methoxy-phenyl)acetyl-9-phenyl-2,3,3a,4,9,9a-hexahydro-1H-benzo[f]isoindole-3a-carboxamide] | 2.25 |
| CC(=O)Oc1ccccc1CC(=O)N1C[C@H]2[C@@]3(c4ccccc4)CC[C@H](c4ccccc43)[C@@]2(C(=O)O)C1 (relative stereo) [Example 29, (3aRS, 4SR, 9SR, 9aRS)-4,9-ethano-2-(2-acetoxyphenyl)acetyl-9-phenyl-2,3,3a,4,9,9a-hexahydro-1H-benzo[f]isoindole-3a-carboxylic acid] | 2.3 |
| CCOC(=O)[C@]12CN(C(=O)Cc3ccccc3OC)C[C@H]1[C@@]1(c3ccccc3)CC[C@@H]2c2ccccc21 (relative stereo) [Example 10, ethyl ester of (3aRS, 4SR, 9SR, 9aRS)-4,9-ethano-2-(2-methoxyphenyl)acetyl-9-phenyl-2,3,3a,4,9,9a-hexahydro-1H-benzo[f]isoindol-3a-carboxylic acid] | 4.35 |
| COc1ccccc1CC(=O)N1C[C@H]2[C@@]3(c4ccccc4)CC[C@H](c4ccccc43)[C@@]2(NC(=O)CN)C1 (relative stereo) [Example 12, (3aRS, 4SR, 9SR, 9aRS)-3a-glycylamino-4,9-ethano-2-(2-methoxyphenyl)acetyl-9-phenyl-2,3,3a,4,9,9a-hexahydro-1H-benzo[f]isoindole] | 7.5 |
| C=C(C(=O)N1C[C@H]2[C@@]3(c4ccccc4)CC[C@H](c4ccccc43)[C@@]2(C(=O)O)C1)c1ccccc1OC [Example 39, (3aS,4R,9R,9aS)-4,9-ethano-2-[2-(2-methoxyphenyl)prop-2-en-1-oyl]-9-phenyl-1,2,3,3a,9,9a-hexahydro-1H-benzo[f]isoindole-3a-carboxylic acid] | 0.05 |
| C=Cc1ccc2c(c1)[C@]1(c3ccccc3)CC[C@H]2[C@@]2(C(=O)O)CN(C(=O)Cc3ccccc3OC)C[C@@H]12 (relative stereo) [Example 73, (3aRS,4SR,9SR,9aRS)-4,9-ethano-2-(2-methoxyphenyl)acetyl-9-phenyl-7-vinyl-2,3,3a,4,9,9a-hexahydro-1H-benzo[f]isoindole-3a-carboxylic acid] | 3.15 |
| COC(=O)CNC(=O)[C@]12CN(C(=O)Cc3ccccc3OC)C[C@H]1[C@@]1(c3ccccc3)CC[C@@H]2c2ccccc21 (relative stereo) [Example 69, methyl ester of N-[(3aRS,4SR,9SR,9aRS)-4,9-ethano-2-(2-methoxyphenyl)acetyl-9-phenyl-2,3,3a,4,9,9a-hexahydro-1H-benzo[f]isoindol-3a-yl]carbonylglycine] | 9.1 |
| COc1ccccc1CC(=O)N1C[C@H]2[C@@]3(c4ccccc4)CC[C@H](c4ccccc43)[C@@]2(NC=O)C1 (relative stereo) [Example 11, (3aRS, 4SR, 9SR, 9aRS)-3a-formylamino-4,9-ethano-2-(2-methoxyphenyl)acetyl-9-phenyl-2,3,3a,4,9,9a-hexahydro-1H-benzo[f]isoindole] | 6.95 |

Further lines, results first:

| IC50 [µM] | Structure (SMILES) |
| --- | --- |
| 1.33 | O=C(Cc1ccccc1OCCCN1CCCC1)N1C[C@H]2[C@@]3(c4ccccc4)CC[C@H](c4ccccc43)[C@@]2(C(=O)O)C1 (relative stereo) [Example 32, hydrochloride of (3aRS, 4SR, 9SR, 9aRS)-4,9-ethano-2-[2-(3-pyrrolidinylpropyl)oxyphenyl]-acetyl-9-phenyl-2,3,3a,4,9,9a-hexahydro-1H-benzo[f]isoindole-3a-carboxylic acid] |
| 0.58 | COc1ccccc1CC(=O)N1C[C@H]2[C@@]3(c4ccccc4)CC[C@H](c4ccccc43)[C@@]2(C(=O)NC(CCC(=O)O)C(=O)O)C1 (stereo partly shown) [Example 7] |
| 0.65 | C/C=C(/C(=O)N1C[C@@H]2[C@]3(c4ccccc4)CC[C@@H](c4ccccc43)[C@]2(C(=O)O)C1)c1ccccc1OC (racemic) [Example 78, (3aRS,4SR,9SR,9aRS)-4,9-ethano-2-[2(E)-(2-methoxyphenyl)-2-butenoyl]-9-phenyl-2,3,3a,4,9,9a-hexahydro-1H-benzo[f]isoindole-3a-carboxylic acid] |
| 1.1 | COc1ccccc1CC(=O)N1C[C@H]2[C@@]3(c4ccccc4)CC[C@H](c4ccccc43)[C@@]2(C(=O)NC(CC(=O)O)C(=O)O)C1 (stereo partly drawn) [Example 6, N-[(3aRS, 4SR, 9SR, 9aRS)-4,9-ethano-2-(2-methoxyphenyl)acetyl-9-phenyl-2,3,3a,4,9,9a-hexahydro-1H-benzo[f]isoindolyl-3a-carbonyl]aspartic acid] |
| 0.16 | C=C(C(=O)N1C[C@H]2[C@@]3(c4ccccc4)CC[C@H](c4ccccc43)[C@@]2(C(=O)NCc2cccnc2)C1)c1ccccc1OC [Example 91, (3aS,4R,9R,9aS)-N-[(3-pyridyl)methyl]-4,9-ethano-2-[(2-methoxyphenyl)prop-2-en-1-oyl]-9-phenyl-2,3,3a,4,9,9a-hexahydro-1H-benzo[f]isoindole-3a-carboxamide] |
| 0.69 | C=C(C(=O)N1C[C@H]2[C@@]3(c4ccccc4)CC[C@H](c4ccccc43)[C@@]2(C(=O)N[C@H](C(=O)OC)c2ccccc2)C1)c1ccccc1OC [Example 72] |
| 0.36 | C=C(C(=O)N1C[C@H]2[C@@]3(c4ccccc4)CC[C@H](c4ccccc43)[C@@]2(C(=O)NCc2cscn2)C1)c1ccccc1OC [Example 96, (3aS,4R,9R,9aS)-N-[(4-thiazolyl)-methyl]-4,9-ethano-2-[(2-methoxyphenyl)prop-2-en-1-oyl]-9-phenyl-2,3,3a,4,9,9a-hexahydro-1H-benzo[f]isoindole-3a-carboxamide] |
| 0.19 | C=C(C(=O)N1CC2C3(c4ccccc4)CCC(c4ccccc43)C2(C(=O)N[C@H](C)c2ccccc2)C1)c1ccccc1OC (single isomer, unassigned) [Example 9] |
| 0.21 | C=C(C(=O)N1C[C@H]2[C@@]3(c4ccccc4)CC[C@H](c4ccccc43)[C@@]2(C(=O)NCc2ccccc2OC)C1)c1ccccc1OC [Example 82] |
